Laboratory results taken from patent US20250215029A1 (Recludix Pharma, Inc., priority 2022, published 2025).
Where two headings read alike, the source gives them in different places.

How the values were obtained:
[1] = molecular target: T1, Recombinant STAT6 protein (STAT6 (W123-T658)) (Homo sapiens, UniProt P42226); test: STAT6 Fluorescence Polarization (FP) Assay; format: binding; settings: 45-minute incubation
T1 construct: Recombinant STAT6 protein (STAT6 (W123-T658))
T1 sequence (P42226 123-658): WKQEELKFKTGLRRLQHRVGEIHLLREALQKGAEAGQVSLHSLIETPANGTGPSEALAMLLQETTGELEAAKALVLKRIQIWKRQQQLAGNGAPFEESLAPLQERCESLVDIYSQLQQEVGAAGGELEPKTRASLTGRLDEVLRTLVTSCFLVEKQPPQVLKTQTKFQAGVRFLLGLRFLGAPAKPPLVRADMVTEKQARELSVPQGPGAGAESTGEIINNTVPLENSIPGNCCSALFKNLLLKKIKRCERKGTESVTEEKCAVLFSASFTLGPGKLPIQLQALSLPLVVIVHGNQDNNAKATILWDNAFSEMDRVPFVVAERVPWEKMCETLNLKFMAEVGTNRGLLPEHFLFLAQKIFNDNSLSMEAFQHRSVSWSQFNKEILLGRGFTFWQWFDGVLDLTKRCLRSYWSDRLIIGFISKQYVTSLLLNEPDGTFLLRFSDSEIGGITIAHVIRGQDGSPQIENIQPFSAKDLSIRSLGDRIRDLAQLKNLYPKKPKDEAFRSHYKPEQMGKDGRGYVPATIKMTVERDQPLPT
Summary of the method: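 Protein-probe mix (250 nM STAT6 W123-T658, 2 nM 5-FAM-pTyr peptide) in 10 mM HEPES pH 7.4, 50 mM NaCl, 1 mM EDTA, 0.05% Tween 20, 2 mM DTT; added to compound dilution series, 1% DMSO final; 45 min RT; FP read; IC50 via nonlinear regression.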

[2] = molecular target: T2, Recombinant STAT3 protein (STAT3 (G127-I722)) (Homo sapiens, UniProt P40763); test: STAT3 Fluorescence Polarization (FP) Assay; format: binding; settings: probe 5-FAM-GpYLPQTV-NH2 2 nM, 45-minute incubation
T2 construct: Recombinant STAT3 protein (STAT3 (G127-I722))
T2 sequence (P40763 127-722): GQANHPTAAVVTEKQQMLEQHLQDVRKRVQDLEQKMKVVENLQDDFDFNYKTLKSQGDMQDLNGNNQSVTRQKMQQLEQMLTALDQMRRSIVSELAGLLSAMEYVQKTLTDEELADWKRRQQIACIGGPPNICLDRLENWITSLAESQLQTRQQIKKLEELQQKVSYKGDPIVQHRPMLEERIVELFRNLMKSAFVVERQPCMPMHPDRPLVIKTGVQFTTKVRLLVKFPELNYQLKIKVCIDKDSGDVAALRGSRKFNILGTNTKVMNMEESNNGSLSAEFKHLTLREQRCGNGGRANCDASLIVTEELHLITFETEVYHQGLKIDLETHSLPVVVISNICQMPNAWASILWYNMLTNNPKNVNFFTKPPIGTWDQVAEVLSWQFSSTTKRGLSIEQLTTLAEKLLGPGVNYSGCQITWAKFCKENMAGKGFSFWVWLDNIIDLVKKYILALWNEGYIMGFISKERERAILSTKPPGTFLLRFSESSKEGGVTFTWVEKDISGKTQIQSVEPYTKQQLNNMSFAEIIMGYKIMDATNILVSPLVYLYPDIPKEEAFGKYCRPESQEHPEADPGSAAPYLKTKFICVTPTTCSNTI
Summary of the method: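 Read-out is fluorescence polarization (mP) after 45 min at room temperature, with IC50 fitted by nonlinear regression against log compound concentration. Mixture: 25 nM STAT3 (G127-I722), 2 nM 5-FAM-GpYLPQTV-NH2 phosphopeptide, 10 mM HEPES pH 7.4 buffer, 1% DMSO.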

[3] = STAT6 (W123-T658) 250 nM, probe 5-FAM-Ap[…]-NH2 2 nM, read-out: STAT6 (FP assay IC50 class)
[4] = STAT3 (G127-I722) 25 nM, read-out: STAT3 (FP assay IC50 class)
[5] = STAT6 250 nM, probe 5-FAM-Ap[…]-NH2 2 nM, read-out: STAT6 (FP assay IC50)
[6] = STAT3 25 nM, read-out: STAT3 (FP assay IC50)

O=C(N[C@H]1CCCC[C@H]2CC[C@@H](C(=O)NCc3cnc4[nH]cnc4c3)N2C1=O)c1cc2cc(C(F)(F)P(=O)(O)O)ccc2s1 [Compound 1112, ((2-(((3S,6S,10aS)-3-(((3H-imidazo[4,5-b]pyridin-6-yl)methyl)carbamoyl)-5-oxodecahydropyrrolo[1,2-a]azocin-6-yl)carbamoyl)benzo[b]thiophen-5-yl)difluoromethyl)phosphonic acid]
IC50 [1, 3]: 0.3 to 3 µM
IC50 [2, 4]: < 0.1 µM

O=C(N[C@H]1CCC[C@H]2CC[C@@H](C(=O)N3CC(c4n[nH]cc4F)C3)N2C1=O)c1cc2cc(C(F)P(=O)(O)O)ccc2s1 (stereo partly drawn) [Compound 595, (fluoro(2-(((3S,6S,9aS)-3-(3-(4-fluoro-1H-pyrazol-3-yl)azetidine-1-carbonyl)-5-oxooctahydro-1H-pyrrolo[1,2-a]azepin-6-yl)carbamoyl)benzo [b]thiophen-5-yl)methyl) phosphonic acid]
IC50 [1, 3]: 3 to 30 µM
IC50 [2, 4]: 0.1 to 1 µM

N#C[C@H]1CN(C(=O)[C@@H]2CC[C@@H]3CCCC[C@H](NC(=O)c4cc5cc(C(F)(F)P(=O)(O)O)ccc5s4)C(=O)N32)C[C@@H]1c1cc[nH]c(=O)c1 (single isomer, unassigned) [Compound 875]
IC50 [1, 3]: ≤ 0.3 µM
IC50 [2, 4]: 0.1 to 1 µM

COc1nccc(C2CN(C(=O)[C@@H]3CC[C@@H]4CCC[C@H](NC(=O)c5cc6cc([C@@H](F)P(=O)(O)O)ccc6s5)C(=O)N43)C2)c1F (single isomer, unassigned) [Compound 700]
IC50 [1, 3]: 3 to 30 µM
IC50 [2, 4]: 0.1 to 1 µM

O=C(NC1CCCCC2CCC(C(=O)N3CC(O)C(n4ccnn4)C3)N2C1=O)c1ccc2ccc(C(F)(F)P(=O)(O)O)cc2c1 (mixture of isomers) [Compound 871, (difluoro(7-(((3S,6S,10aS)-3-((rel-trans)-3-hydroxy-4-(1H-1,2,3-triazol-1-yl)pyrrolidine-1-carbonyl)-5-oxodecahydropyrrolo[1,2-a]azocin-6-yl)carbamoyl)naphthalen-2-yl)methyl) phosphonic acid]
IC50 [1, 3]: 0.3 to 3 µM
IC50 [2, 4]: 1 to 10 µM

Cc1ccncc1C1CN(C(=O)[C@@H]2CC[C@@H]3CCC[C@H](NC(=O)c4cc5cc([C@H](F)P(=O)(O)O)ccc5s4)C(=O)N32)C1 (single isomer, unassigned) [Compound 636]
IC50 [1, 3]: 3 to 30 µM
IC50 [2, 4]: < 0.1 µM

O=C(N[C@H]1CCCC[C@H]2CC[C@@H](C(=O)Nc3ccc4nccc(Cl)c4c3)N2C1=O)c1cc2cc(C(F)(F)P(=O)(O)O)ccc2s1 [Compound 55, ((2-(((3S,6S,10aS)-3-((4-chloroquinolin-6-yl)carbamoyl)-5-oxodecahydropyrrolo [1,2-a]azocin-6-yl)carbamoyl)benzo[b]thiophen-5-yl)difluoromethyl) phosphonic acid]
IC50 [1, 5]: 0.3 to 3 µM
IC50 [2, 6]: 0.1 to 1 µM

(difluoro(2- (((3S,6S,10aS)-5- oxo-3-((1R,5S,6R)- 6-phenyl-3- azabicyclo[3.1.0] hexane-3- carbonyl)decahydro pyrrolo[1,2- a]azocin-6- yl)carbamoyl)benzo [b]thiophen-5- yl)methyl) phosphonic acid [Compound 805]
IC50 ([1]; STAT6 (W123-T658) 250 nM, probe 5-FAM-ApYKPFQDLI-NH2 2 nM, read-out: STAT6 (FP assay IC50 class)): 3 to 30 µM
IC50 [2, 4]: 0.1 to 1 µM

NC(=O)N1CC(NC(=O)[C@@H]2CC[C@@H]3CCCC[C@H](NC(=O)c4cc5cc(C(F)P(=O)(O)O)ccc5s4)C(=O)N32)C1 (stereo partly drawn) [Compound 549, ((2-(((3S,6S,10aS)-3-((1-carbamoylazetidin-3-yl)carbamoyl)-5-oxodecahydropyrrolo[1,2-a]azocin-6-yl)carbamoyl)benzo[b]thiophen-5-yl)fluoromethyl)phosphonic acid]
IC50 [1, 3]: 3 to 30 µM
IC50 [2, 4]: < 0.1 µM

N#Cc1cc(C2CN(C(=O)[C@@H]3CC[C@@H]4CCC[C@H](NC(=O)c5cc6cc(C(F)P(=O)(O)O)ccc6s5)C(=O)N43)C2)ccn1 (stereo partly drawn) [Compound 918, ((2-(((3S,6S,9aS)-3-(3-(2-cyanopyridin-4-yl)azetidine-1-carbonyl)-5-oxooctahydro-1H-pyrrolo[1,2-a]azepin-6-yl)carbamoyl)benzo [b]thiophen-5-yl)fluoromethyl) phosphonic acid]
IC50 [1, 3]: 3 to 30 µM
IC50 [2, 4]: < 0.1 µM

C[C@H]1C[C@H]2CC[C@@H](C(=O)N3CC(c4cnccc4F)C3)N2C(=O)[C@@H](NC(=O)c2cc3cc(C(F)P(=O)(O)O)ccc3s2)C1 (stereo partly drawn) [Compound 207, (fluoro(2-(((3S,6S,8R,9aR)-3-(3-(4-fluoropyridin-3-yl)azetidine-1-carbonyl)-8-methyl-5-oxooctahydro-1H-pyrrolo[1,2-a]azepin-6-yl)carbamoyl)benzo[b]thiophen-5-yl)methyl)phosphonic acid]
IC50 [1, 3]: 3 to 30 µM
IC50 [2, 4]: < 0.1 µM

C/C1=C/[C@H]2CC[C@@H](C(=O)N3CC(c4ccccc4)CC34CC4)N2C(=O)[C@@H](NC(=O)c2ccc3ccc(CP(=O)(O)O)cc3c2)CC1 (stereo partly drawn) [Compound 885, ((7-(((3S,6S,10aR,Z)-9-methyl-5-oxo-3-(6-phenyl-4-azaspiro[2.4]heptane-4-carbonyl)-1,2,3,5,6,7,8,10a-octahydropyrrolo[1,2-a]azocin-6-yl)carbamoyl)naphthalen-2-yl)methyl) phosphonic acid]
IC50 [1, 3]: 0.3 to 3 µM
IC50 [2, 4]: 1 to 10 µM

O=C(N[C@H]1CCCC[C@H]2CC[C@@H](C(=O)N3CCC(c4ccccn4)CC3)N2C1=O)c1cc2cc(C(F)P(=O)(O)O)ccc2s1 (stereo partly drawn) [Compound 579, (fluoro(2-(((3S,6S,10aS)-5-oxo-3-(4-(pyridin-2-yl)piperidine-1-carbonyl)decahydropyrrolo[1,2-a]azocin-6-yl)carbamoyl)benzo[b]thiophen-5-yl)methyl)phosphonic acid]
IC50 [1, 3]: 3 to 30 µM
IC50 [2, 4]: 0.1 to 1 µM

N#C[C@H]1[C@H](c2ccccc2)CN(C(=O)[C@@H]2CC[C@@H]3C[C@@H](N4CCC4)CC[C@H](NC(=O)c4cc5cc([C@@H](F)P(=O)(O)O)ccc5s4)C(=O)N32)C12CC2 (single isomer, unassigned) [Compound 937]
IC50 [1, 3]: ≤ 0.3 µM
IC50 [2, 4]: 1 to 10 µM

O=C(N[C@H]1CCCC[C@H]2CC[C@@H](C(=O)N3CCc4c(cc[nH]c4=O)C3)N2C1=O)c1cc2cc(C(F)(F)P(=O)(O)O)ccc2s1 [Compound 48, (difluoro(2-(((3S,6S,10aS)-5-oxo-3-(5-oxo-1,2,3,4,5,6-hexahydro-2,6-naphthyridine-2-carbonyl)decahydropyrrolo [1,2-a]azocin-6-yl)carbamoyl)benzo[b]thiophen-5-yl)methyl) phosphonic acid]
IC50 [1, 5]: 3 to 30 µM
IC50 [2, 6]: 1 to 10 µM

CC1CCC[C@H](NC(=O)c2cc3cc(C(F)(F)P(=O)(O)O)ccc3s2)C(=O)N2[C@@H]1CC[C@H]2C(=O)N1CC(c2cccnc2)C1 (stereo partly drawn) [Compound 103, (difluoro(2-(((3S,6S,10aR)-10-methyl-5-oxo-3-(3-(pyridin-3-yl)azetidine-1-carbonyl)decahydropyrrolo [1,2-a]azocin-6-yl)carbamoyl)benzo[b]thiophen-5-yl)methyl) phosphonic acid]
IC50 [1, 5]: 3 to 30 µM
IC50 [2, 6]: < 0.1 µM

Cn1cc(F)c(C2CN(C(=O)[C@@H]3CC[C@@H]4CCC[C@H](NC(=O)c5cc6cc(C(F)P(=O)(O)O)ccc6s5)C(=O)N43)C2)n1 (stereo partly drawn) [Compound 754, (fluoro(2-(((3S,6S,9aS)-3-(3-(4-fluoro-1-methyl-1H-pyrazol-3-yl)azetidine-1-carbonyl)-5-oxooctahydro-1H-pyrrolo[1,2-a]azepin-6-yl)carbamoyl)benzo [b]thiophen-5-yl)methyl) phosphonic acid]
IC50 [1, 3]: 3 to 30 µM
IC50 [2, 4]: 1 to 10 µM

O=C(N[C@H]1CCC[C@H]2CC[C@@H](C(=O)N3CC(c4cnccc4N4CCOCC4)C3)N2C1=O)c1cc2cc(CP(=O)(O)O)ccc2s1 [Compound 750, ((2-(((3S,6S,9aS)-3-(3-(4-morpholinopyridin-3-yl)azetidine-1-carbonyl)-5-oxooctahydro-1H-pyrrolo[1,2-a]azepin-6-yl)carbamoyl)benzo [b]thiophen-5-yl)methyl) phosphonic acid]
IC50 [1, 3]: 3 to 30 µM
IC50 [2, 4]: < 0.1 µM

N#C[C@@H]1[C@@H](c2ccccc2)CN(C(=O)[C@@H]2CC[C@@H]3CCC[C@H](NC(=O)c4cc5cc([C@@H](F)P(=O)(O)O)ccc5s4)C(=O)N32)C12CC2 (single isomer, unassigned) [Compound 920]
IC50 [1, 3]: ≤ 0.3 µM
IC50 [2, 4]: 1 to 10 µM
